Data: ChEMBL document CHEMBL1201862, “PubChem BioAssay data set” (2004)
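Exposure lasted 48 hours, with cells grown in 96-well plates and compounds tested at five concentrations. GI50 is the concentration that inhibits growth by half.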 Active and inactive are the calls of the source. Rule as the data show it: active = GI50 up to about 1.1 µM and inactive = higher.

Key:
Test in all cases: growth of human tumour cells (NCI), 48 h
[1] = test system: RXF 631
[2] = test system: COLO 205
[3] = test system: HOP-62
[4] = test system: SF-268
[5] = test system: HL-60
[6] = test system: RXF 393
[7] = test system: A549
[8] = test system: M14
[9] = test system: HCT-116
[10] = test system: IGROV-1
[11] = test system: UACC-257
[12] = test system: RPMI-8226
[13] = test system: UO-31
[14] = test system: SF-295
[15] = test system: OVCAR-4
[16] = test system: NCI-H460
[17] = test system: DLD-1
[18] = test system: LOX IMVI
[19] = test system: NCI-H522
[20] = test system: M19-MEL
[21] = test system: CAKI-1
[22] = test system: SF-539
[23] = test system: EKVX
[24] = test system: MOLT-4
[25] = test system: KM12
[26] = test system: OVCAR-8
[27] = test system: KM-20L2
[28] = test system: U-251
[29] = test system: SK-OV-3
[30] = test system: SR
[31] = test system: SW-620
[32] = test system: DMS-273
[33] = test system: SNB-75
[34] = test system: CCRF-CEM
[35] = test system: SN12C
[36] = test system: SK-MEL-2
[37] = test system: UACC-62
[38] = test system: HCC 2998
[39] = test system: XF498
[40] = test system: OVCAR-3
[41] = test system: TK-10
[42] = test system: SK-MEL-5
[43] = test system: K562
[44] = test system: HOP-92
[45] = test system: SK-MEL-28
[46] = test system: 786-0
[47] = test system: SNB-19
[48] = test system: NCI-H23
[49] = test system: SNB-78
[50] = test system: A498
[51] = test system: HT-29
[52] = test system: LXFL 529
[53] = test system: NCI-H226
[54] = test system: Malme-3M
[55] = test system: OVCAR-5
[56] = test system: ACHN
[57] = test system: DMS-114
[58] = test system: HCT-15
[59] = test system: HOP-18

## COC(=O)c1c(N)n[nH]c1N
[1]
  GI50: > 100 µM (inactive)
[2]
  GI50: > 100 µM (inactive)
[3]
  GI50: > 100 µM (inactive)
[4]
  GI50: > 100 µM (inactive)
[5]
  GI50: > 100 µM (inactive)
[6]
  GI50: > 100 µM (inactive)
[7]
  GI50: > 100 µM (inactive)
[8]
  GI50: > 100 µM (inactive)
[9]
  GI50: > 100 µM (inactive)
[10]
  GI50: > 100 µM (inactive)
[11]
  GI50: > 100 µM (inactive)
[12]
  GI50: > 100 µM (inactive)
[13]
  GI50: > 100 µM (inactive)
[14]
  GI50: > 100 µM (inactive)
[15]
  GI50: > 100 µM (inactive)
[16]
  GI50: > 100 µM (inactive)
[17]
  GI50: > 100 µM (inactive)
[18]
  GI50: > 100 µM (inactive)
[19]
  GI50: > 100 µM (inactive)
[20]
  GI50: > 100 µM (inactive)
[21]
  GI50: > 100 µM (inactive)
[22]
  GI50: > 100 µM (inactive)
[23]
  GI50: > 100 µM (inactive)
[24]
  GI50: > 100 µM (inactive)
[25]
  GI50: > 100 µM (inactive)
[26]
  GI50: > 100 µM (inactive)
[27]
  GI50: > 100 µM (inactive)
[28]
  GI50: > 100 µM (inactive)
[29]
  GI50: > 100 µM (inactive)
[30]
  GI50: > 100 µM (inactive)
[31]
  GI50: > 100 µM (inactive)
[32]
  GI50: > 100 µM (inactive)
[33]
  GI50: > 100 µM (inactive)
[34]
  GI50: > 100 µM (inactive)
[35]
  GI50: > 100 µM (inactive)
[36]
  GI50: > 100 µM (inactive)
[37]
  GI50: 77.6 µM (inactive)
[38]
  GI50: > 100 µM (inactive)
[39]
  GI50: > 100 µM (inactive)
[40]
  GI50: > 100 µM (inactive)
[41]
  GI50: > 100 µM (inactive)
[42]
  GI50: > 100 µM (inactive)
[43]
  GI50: > 100 µM (inactive)
[44]
  GI50: > 100 µM (inactive)
[45]
  GI50: > 100 µM (inactive)
[46]
  GI50: > 100 µM (inactive)
[47]
  GI50: > 100 µM (inactive)
[48]
  GI50: > 100 µM (inactive)
[49]
  GI50: > 100 µM (inactive)
[50]
  GI50: > 100 µM (inactive)

## COc1ccc(/C=C/c2cc(OC)c(OCc3ccccc3)c(OC)c2)cc1
[1]
  GI50: 48.3 µM (inactive)
[2]
  GI50: > 100 µM (inactive)
[3]
  GI50: > 100 µM (inactive)
[4]
  GI50: > 100 µM (inactive)
[7]
  GI50: > 100 µM (inactive)
[8]
  GI50: 87.5 µM (inactive)
[9]
  GI50: > 100 µM (inactive)
[10]
  GI50: > 100 µM (inactive)
[11]
  GI50: 99.1 µM (inactive)
[12]
  GI50: 57.9 µM (inactive)
[13]
  GI50: 52.1 µM (inactive)
[15]
  GI50: 23.6 µM (inactive)
[16]
  GI50: > 100 µM (inactive)
[17]
  GI50: 45.6 µM (inactive)
[51]
  GI50: 27.9 µM (inactive)
[19]
  GI50: > 100 µM (inactive)
[52]
  GI50: > 100 µM (inactive)
[20]
  GI50: > 100 µM (inactive)
[21]
  GI50: > 100 µM (inactive)
[22]
  GI50: > 100 µM (inactive)
[23]
  GI50: > 100 µM (inactive)
[24]
  GI50: 29 µM (inactive)
[25]
  GI50: > 100 µM (inactive)
[26]
  GI50: > 100 µM (inactive)
[53]
  GI50: > 100 µM (inactive)
[27]
  GI50: > 100 µM (inactive)
[28]
  GI50: > 100 µM (inactive)
[29]
  GI50: > 100 µM (inactive)
[30]
  GI50: 26.4 µM (inactive)
[31]
  GI50: > 100 µM (inactive)
[54]
  GI50: > 100 µM (inactive)
[32]
  GI50: 71.6 µM (inactive)
[33]
  GI50: > 100 µM (inactive)
[34]
  GI50: > 100 µM (inactive)
[35]
  GI50: > 100 µM (inactive)
[36]
  GI50: > 100 µM (inactive)
[37]
  GI50: 77.1 µM (inactive)
[38]
  GI50: > 100 µM (inactive)
[39]
  GI50: > 100 µM (inactive)
[40]
  GI50: > 100 µM (inactive)
[55]
  GI50: 8.99 µM (inactive)
[56]
  GI50: > 100 µM (inactive)
[43]
  GI50: > 100 µM (inactive)
[44]
  GI50: 89.7 µM (inactive)
[45]
  GI50: 56.6 µM (inactive)
[57]
  GI50: 68.4 µM (inactive)
[46]
  GI50: > 100 µM (inactive)
[47]
  GI50: > 100 µM (inactive)
[48]
  GI50: 64 µM (inactive)
[49]
  GI50: > 100 µM (inactive)
[50]
  GI50: > 100 µM (inactive)

## CN(CC1NCCCC1O)C12CC3CC(CC(C3)C1)C2 (stereo unspecified)
[2]
  GI50: > 100 µM (inactive)
[3]
  GI50: > 100 µM (inactive)
[4]
  GI50: > 100 µM (inactive)
[5]
  GI50: > 100 µM (inactive)
[7]
  GI50: > 100 µM (inactive)
[8]
  GI50: > 100 µM (inactive)
[10]
  GI50: > 100 µM (inactive)
[11]
  GI50: > 100 µM (inactive)
[12]
  GI50: > 100 µM (inactive)
[13]
  GI50: > 100 µM (inactive)
[14]
  GI50: > 100 µM (inactive)
[15]
  GI50: > 100 µM (inactive)
[16]
  GI50: > 100 µM (inactive)
[17]
  GI50: > 100 µM (inactive)
[18]
  GI50: > 100 µM (inactive)
[51]
  GI50: > 100 µM (inactive)
[19]
  GI50: > 100 µM (inactive)
[52]
  GI50: > 100 µM (inactive)
[20]
  GI50: > 100 µM (inactive)
[21]
  GI50: > 100 µM (inactive)
[22]
  GI50: > 100 µM (inactive)
[23]
  GI50: > 100 µM (inactive)
[24]
  GI50: > 100 µM (inactive)
[25]
  GI50: > 100 µM (inactive)
[26]
  GI50: > 100 µM (inactive)
[53]
  GI50: > 100 µM (inactive)
[27]
  GI50: > 100 µM (inactive)
[58]
  GI50: > 100 µM
[28]
  GI50: > 100 µM (inactive)
[29]
  GI50: > 100 µM (inactive)
[31]
  GI50: > 100 µM (inactive)
[54]
  GI50: > 100 µM (inactive)
[32]
  GI50: > 100 µM (inactive)
[34]
  GI50: > 100 µM (inactive)
[35]
  GI50: > 100 µM (inactive)
[37]
  GI50: > 100 µM (inactive)
[38]
  GI50: > 100 µM (inactive)
[39]
  GI50: > 100 µM (inactive)
[40]
  GI50: > 100 µM (inactive)
[55]
  GI50: > 100 µM (inactive)
[41]
  GI50: > 100 µM (inactive)
[56]
  GI50: > 100 µM (inactive)
[43]
  GI50: 70.8 µM (inactive)
[44]
  GI50: > 100 µM (inactive)
[57]
  GI50: > 100 µM (inactive)
[46]
  GI50: > 100 µM (inactive)
[47]
  GI50: > 100 µM (inactive)
[48]
  GI50: > 100 µM (inactive)
[50]
  GI50: > 100 µM (inactive)
[59]
  GI50: > 100 µM (inactive)
